Data taken from publication PMC11050087, “Polyphenols from Maackia amurensis Heartwood Protect Neuronal Cells from Oxidative Stress and Prevent Herpetic Infection” (International Journal of Molecular Sciences, 2024).
“And” between values parts separate entries of the source, which are not always exact repeats. Identical values can stand only once.

Tests used:
HSV-1 = assay: Virucidal activity, CPE inhibition assay (HSV-1 pretreated with compounds); assay type: cell-based, HSV-1 strain L2; conditions: for IC50: Human alphaherpesvirus 1, virus pretreated with compound (virucidal), Vero cells, 100 TCID50/mL; for SI: ratio of CC50 to IC50, virucidal scheme
[1] = system: 6-OHDA-treated Neuro-2a cells; assay: Mitochondrial membrane potential detection (TMRM) in 6-OHDA-treated cells; assay type: cell-based, murine; conditions: compound 10 µM; 6-OHDA 120 µM; TMRM
Description: We determined the effect of polyphenolic compounds from M. amurensis on 6-OHDA-induced mitochondrial dysfunction in Neuro-2a cells (Figure 6a,b).
Figure 6 The effect of polyphenolic compounds isolated from M. amurensis heartwood on mitochondrial membrane potential in Neuro-2a cells treated with 6-OHDA (120 μM) (a,b). Polyphenolic compounds isolated from M. amurensis heartwood were used at concentrations 10, 1, 0.1 μM. The data are presented as means ± SEM of three independent replicates. (*) and (***) indicate, respectively, p < 0.05 and p < 0.001 versus 6-OHDA-treated cells.
The cells were incubated for 1 h in a 96-well plate (1 × 10^4 cells/well) with polyphenolic compounds (0.1, 1 and 10 µM). Then, 6-OHDA (120 µM) was added, and cell suspension was incubated for 1 h. Cells incubated without 6-OHDA and compounds and with 6-OHDA alone were used as positive and negative control, respectively. The tetramethylrhodamine methyl (TMRM) (Sigma-Aldrich, St. Louis, MO, USA) solution (500 nM) was added to each well and cells were incubated for 30 min at 37 °C. The intensity of fluorescence was measured using a PHERAstar FSplate reader (BMG Labtech, Ortenberg, Germany) at λex = 540 nm and λem = 590 nm. The data were processed by MARS Data Analysis v. 3.01R2 (BMG Labtech, Ortenberg, Germany).

[2] = system: 6-OHDA-treated Neuro-2a cells; assay: ROS analysis in 6-OHDA-treated cells (H2DCF-DA); assay type: cell-based, murine; conditions: 6-OHDA 120 µM; for reduction of ROS levels in 6-OHDA-treated Neuro-2a cells: compound 1 µM
Description: We studied the effect of polyphenolic compounds set on ROS levels in 6-OHDA-treated Neuro-2a cells (Figure 5a–d).
Figure 5 The effect of polyphenolic compounds isolated from M. amurensis heartwood on ROS levels in Neuro-2a cells treated with 6-OHDA (120 μM) (a–d). Polyphenolic compounds isolated from M. amurensis heartwood were used at concentrations 10, 1, 0.1 μM. The data are presented as means ± SEM of three independent replicates.
After 24 h of adhesion, Neuro-2a cells (5 × 10^4 cells/mL) were incubated with polyphenolic compounds at concentrations of 0.1, 1, and 10 µM for 1 h. Then, 120 µM of 6-OHDA or 1 mM of PQ were added to each well, and cells were incubated for 1 h. To study the ROS formation, 20 µL of 2,7-dichlorodihydrofluorescein diacetate solution (H2DCF-DA, Sigma-Aldrich, St. Louis, MO, USA) were added to each well, so that the final concentration was 10 µM. Then, the microplate was incubated for 30 min at 37 °C.

Oc1cc(O)cc(/C=C/c2ccc3c(c2)O[C@H](c2cc(O)cc(O)c2)[C@@H](c2ccc(O)c(O)c2)O3)c1 [Compound 9, maackin]
IC50 (HSV-1; CPE assay): 2.4 µg/mL and 4.9 µM
SI (HSV-1): 112.3 and 112.3 ± 13.5
increase of mitochondrial membrane potential [1]: 8–12%

Oc1ccc(/C=C/c2cc(O)cc3c2[C@H](c2cc(O)cc(O)c2)[C@@H](c2ccc(O)c(O)c2)O3)cc1 [Compound 13, scirpusin A]
IC50 (HSV-1; CPE assay): 2.6 µg/mL and 5.5 µM
reduction of ROS levels in 6-OHDA-treated Neuro-2a cells [2]: 43%

O=C1C[C@@H](c2ccc(O)cc2)Oc2cc(O)ccc21 [Compound 6, liquiritigenin]
virucidal activity against HSV-1 (in words) (HSV-1; CPE assay, virus pretreated with compound): did not show virucidal activity
reduction of ROS levels in 6-OHDA-treated Neuro-2a cells [2]: 15%
effect on ROS levels in 6-OHDA-treated Neuro-2a cells (in words) ([2]; compounds at 10, 1, 0.1 µM): dose-dependent effect
increase of mitochondrial membrane potential [1]: 8–12%

Oc1ccc(/C=C/c2cc(O)cc(O)c2)cc1 [Compound 1, resveratrol]
IC50 (HSV-1; CPE assay): 9.6 µg/mL and 42.1 µM
SI (HSV-1): 12.8 ± 1.9
reduction of ROS levels in 6-OHDA-treated Neuro-2a cells [2]: approximately 15%
increase of mitochondrial membrane potential [1]: 8–12%
